What was measured:
Assay type in all cases: cell-based
Settings in all cases: Hepatitis C virus
GT3a-S52 replicon = test: Stable replicon assay, comparison to daclatasvir, GT3a-S52
From the text: The GT3a-S52 replicon plasmid pSGRlucneo-GT3a-S52-HDVR-(ISH) was synthesized by Genscript. This plasmid encodes a GT3a (strain S52, accession GU814264) bicistronic subgenomic replicon encoding the hRluc-Neo reporter gene in the first cistron and NS3-NS5B, driven by an encephalomyocarditis virus (EMCV) internal ribosome entry site (IRES), in the second cistron. The hepatitis delta ribozyme (HDVR) was included after the HCV 3′ NTR followed by a unique SpeI restriction site for linearization. This replicon encodes three cell culture adaptive mutations, P1226S (NS3), D1437H (NS3), and S2210I (NS5A), as described previously (Saeed et al 2012 Antimicrob. Agents Chemother. 54: 1878-1887). The GT4a-ED43 replicon plasmid pSGRlucneo-GT4a-ED43-HDVR-(KG) was synthesized by Genscript. […]
Stable HCV replicon cell lines were grown in complete media (Dulbecco's modified Eagle medium [DMEM], 2 mM L-glutamine, 0.1 mM essential amino acids, 1 mM sodium pyruvate, 10% fetal bovine serum) with the addition 500 μg/ml […] (G418). […] For stable and transient replicon assays, luciferase activity of compound-treated cells was measured relative to DMSO-treated cells after 72 h incubation using RENILLA-GLO™ Luciferase Assay (Promega). […]

[1] = system: HCV genotype 1a replicon, NS5A K24R; test: Transient replication assay, GT1a NS5A K24R
[2] = system: HCV genotype 1a replicon, NS5A Q30R Y93H; test: Transient replication assay, GT1a NS5A Q30R Y93H

Structure (SMILES)	EC50 (GT3a-S52 replicon)	EC50 [1]	EC50 [2]
COC(=O)N[C@H](C(=O)N1C[C@]2(CCCOC2)C[C@H]1c1ncc(-c2ccc(-c3ccc4c(ccc5nc([C@@H]6C[C@@H]7CCC[C@@H]7N6C(=O)[C@@H](NC(=O)OC)C(C)C)[nH]c54)c3)cc2)[nH]1)C(C)C [Compound 16]	4.7 nM	0.0012 nM	38 nM
COC(=O)N[C@H](C(=O)N1CCC[C@H]1c1nc(-c2ccc(-c3ccc(-c4c[nH]c([C@@H]5CCCN5C(=O)[C@@H](NC(=O)OC)C(C)C)n4)cc3)cc2)c[nH]1)C(C)C [Daclatasvir, reference compound]	1.2 nM	0.011 nM	243 nM
